This note sets out measurements from patent US12570612B2, “Substituted nitrogen heterocyclic compound and anesthetic effect thereof” (priority 2019, dated 2026).

Entries after “also recorded” stand apart in the source; their conditions may differ. Where two headings read alike, the source gives them in different places.

The test system of series [1] is Sprague-Dawley rats. The series can be described thus: Pharmacological characteristics at equivalent doses (2ED50), Group A compounds. It is filed as in vivo. The note with it: 2ED50, tail vein; for Types and incidence of adverse reactions: (animals affected/animals).
The subject of series [2] is H295R cell line. Briefly: Adrenocortical function in vitro test: secretion of cortisol and corticosterone, Group A compounds. Conditions: H295 cells; for EC50: Homo sapiens, 0.1-10000 nM, HPLC-MS/MS. It is filed as cell-based.
Series [3] concerns Sprague-Dawley rats. Conditions: for Recovery time after stopping infusion: LORR maintained for 1 hour; for Recovery time after stopping infusion / Onset time: 2 times the MIR; for Onset time / Types and incidence of adverse reactions: continuous infusion; for Types and incidence of adverse reactions: (animals affected/animals). As for the experimental part:
Adult male Sprague-Dawley rats with body weight ranging from 250 to 300 gm were selected for continuous infusion test. […] Time to recovery of righting reflex from stopping infusion, and time to fully awake from stopping infusion were recorded.

For series [4], the system named is Sprague-Dawley rats. The series can be described thus: animal or person. Conditions: for ED50: Rattus norvegicus; for Approximate therapeutic index / Minimal lethal dose: rats. The procedure:
(§1) Adult male Sprague-Dawley rats (250-300 g) were selected for the experiment. […] The anesthesia effects of the compounds were assessed in rats using a LORR assay and a period >30 s was considered as an indicator of general anesthesia.

In series [5] the test system is H295R cell line. Briefly: Adrenocortical function in vitro test: secretion of cortisol and corticosterone, Group B compounds. It counts as cell-based. The note with it: H295R cells; for EC50: 0.1-10000 nM, HPLC-MS/MS.
Series [6] has as its system Sprague-Dawley rats. The series can be described thus: Continuous infusion at 2 times the MIR for 1 hour, Group B compounds. It is filed as in vivo. The note with it: for Recovery time after stopping infusion: after 1 hour continuous infusion at 2 times the MIR; for Recovery time after stopping infusion / Onset time: rats; for Types and incidence of adverse reactions: Tongue stretching / Types and incidence of adverse reactions: Tremor: continuous infusion 2 x MIR 1 hour, rats affected/rats; for Onset time: continuous tail vein infusion at 2 times the MIR, emulsion.

Series [7] deals with Sprague-Dawley rats. The series can be described thus: animal or person. The note with it: for ED50: LORR in rats, tail vein, brackets = 95% confidence limit; for Approximate therapeutic index / Minimal lethal dose: rats. As for the experimental part: as §1
Where [8] appears, read: read-out: EC50 (Corticosterone).

For `C[C@H](c1ccccc1)n1nccc1C(=O)OC1CCC1` [Compound A4], in series [1], the Onset time came out at 0.52 ± 0.21 min; the Righting reflex duration is recorded as 1.39 ± 0.66 min; the “Types and incidence of adverse reactions” value is “Red urine(6/6),; also recorded: Euphoria(5/6), Hindlimb; also recorded: rigidity(1/6)”. Further, in series [2], the “Corticosterone as an indicator to determine the presence of inhibition” value (from here on “Corticosterone as an indicator … of inhibition”) was found to be 0 and the “Cortisol as an indicator to determine the presence of inhibition” value (from here on “Cortisol as an indicator … of inhibition”) is given as 0. In addition, the EC50 in series [2] (setting [8]) was greater than 1000 nM. For the same compound, the concentration for a half-maximal effect (EC50) in series [2] (read-out: EC50 (Cortisol)) is greater than 1000 nM. For the same compound, in series [3], the “Recovery time after stopping infusion” value lay in the range of 14 to 16 min; the Onset time was 4 to 5 min; the “Types and incidence of adverse reactions” value is “Tremor(3/6), Tongue; also recorded: stretching(4/6)”. In series [4], this compound came in with a 50% effective dose (ED50) of 1 to 2 mg/kg, an Approximate therapeutic index greater than 11 and a Minimal lethal dose greater than 15 mg/kg.

In the case of `C=C=CC(C)(C)OC(=O)c1ccnn1[C@H](C)c1ccccc1` [Compound A14], in series [1], the Onset time came out at 0.78 ± 0.22 min; the Righting reflex duration is 1.20 ± 0.72 min; the “Types and incidence of adverse reactions” value is recorded as “Red urine(5/5), Four limbs; also recorded: Tremor(1/5)”. Also, in series [2], the “Corticosterone as an indicator … of inhibition” value was found to be 0 and the “Cortisol as an indicator … of inhibition” value was 0. In addition, the EC50 in series [2] (setting [8]) was greater than 1000 nM. Moreover, the EC50 in series [2] (read-out: EC50 (Cortisol)) was greater than 1000 nM. In series [3], the “Recovery time after stopping infusion” value lay within 10 to 14 min; the Onset time is 6 to 7 min; the “Types and incidence of adverse reactions” value is given as “Tremor(1/6),”. Besides, in series [4], the ED50 was in the range of 1 to 2 mg/kg, the Approximate therapeutic index was greater than 8 and the Minimal lethal dose is greater than 11 mg/kg.

Turning to `CCOC(=O)c1nnn([C@H](C)c2ccccc2)c1Br` [Compound B100], in series [5], the “Corticosterone as an indicator … of inhibition” value is given as 0 and the “Cortisol as an indicator … of inhibition” value is reported as 0. Further, the EC50 in series [5] (setting [8]) was greater than 1000 nM. Besides, in series [5] (read-out: EC50 (Cortisol)), the EC50 is greater than 1000 nM. In series [6], the “Recovery time after stopping infusion” value fell in the range of 15 to 17 min; the “Types and incidence of adverse reactions: Tongue stretching” value was “stretching(3/6)”; the “Types and incidence of adverse reactions: Tremor” value is given as “Tremor(2/6), Tongue”; the Onset time is 5 to 6 min. In addition, in series [7], the ED50 entry is on record as “D (D indicates that the measured ED50 is in the range of 2.00-10.00 mg/kg (excluding 2.00 mg/kg, including 10.00 mg/kg))”; the Approximate therapeutic index is greater than 2; the Minimal lethal dose was greater than 18 mg/kg.

As for `CCOC(=O)c1c(Br)nnn1[C@H](C)c1ccccc1` [Compound B118], in series [5], the “Corticosterone as an indicator … of inhibition” value is reported as 0 and the “Cortisol as an indicator … of inhibition” value is reported as 0. In addition, the EC50 in series [5] (setting [8]) was greater than 1000 nM. Besides, in series [5] (read-out: EC50 (Cortisol)), the concentration giving a half-maximal response (EC50) was greater than 1000 nM. For the same compound, in series [6], the “Recovery time after stopping infusion” value lay within 13 to 15 min; the “Types and incidence of adverse reactions: Tongue stretching” value is on record as “stretching(4/6)”; the “Types and incidence of adverse reactions: Tremor” value is “Tremor(4/6), Tongue”; the Onset time was 6 to 7 min. Moreover, in series [7], the 50% effective dose (ED50) entry is “C (C indicates that the measured ED50 is in the range of 1.00-2.00 mg/kg (excluding 1.00 mg/kg, including 2.00 mg/kg))”; the Approximate therapeutic index is listed as greater than 12; the Minimal lethal dose is listed as greater than 17 mg/kg.

One may read the EC50 as the concentration that produces a half-maximal response. In general, ED50 refers to the dose that gives a 50% effect, or the effect in half of the subjects. The low end stands for an effect at a small dose, the high end for a need for a large dose.
